Several values for one entry are separate records, joined by “and”; a condition that tells them apart may be missing. Equal entries are not always repeated. Where two headings read alike, the source gives them in different places.
Legend:
Shaker-IR-W434F [1] = target: T1, Shaker-IR-W434F (Drosophila melanogaster, UniProt P08510, DEL6-46/W434F); assay: cell-based; assay type: cell-based; details: for QV curve V1/2: voltage dependence of VSD movement; for gating charge immobilized (reduction in gating charge movement): general statement, no concentration given
T1 construct: expressed in transfected cells; host or cells: HEK293
Description: (§1) The N-terminal deletion Δ6–46 Shaker clone (Shaker-IR), which removes fast inactivation, was used in this study. The W434F mutation, which yields a non-conducting Shaker-IR-W434F channel, and the P475A mutation were introduced as described previously. All channel constructs were expressed using a pGW1 expression vector. The plasmid that codes for the green fluorescent protein, used to identify transfected cells, was purchased from Clontech (Palo Alto, CA, USA). Plasmid DNA for mammalian expression was obtained by amplification in XL2 Bluescript cells (Stratagene), and afterwards isolated using the endotoxin-free Maxiprep kit (Macherey-Nagel, Düren, Germany). The cDNA concentration was determined by UV absorption.
(§2) HEK293 cells were cultured in Modified Eagle’s Medium (MEM) supplemented with 10% fetal bovine serum, 1% penicillin/streptomycin and 1% non-essential amino acids (Invitrogen, Carlsbad, CA, USA). Cells were transiently transfected with the appropriate channel DNA plasmids using polyethyleneimine that was purchased from Sigma-Aldrich (St Louis, MO, USA), details of procedure was described previously.
(§3) Whole-cell ionic IK or gating IG current measurements were done at room temperature (20 to 23 °C) using an Axopatch-200B amplifier and the recordings were digitized with a Digidata-1200 A acquisition system (Molecular Devices, Sunnyvale, CA, USA). Both IK and IG recordings were digitized at 10 kHz sampling rate after passing a 5 KHz Bessel low-pass filter. Command voltages and data storage were controlled with pClamp10 software. Patch pipettes were pulled from 1.2 mm quick-fill borosilicate glass capillaries (World Precision Instruments, Sarasota, FL, USA) with a P-2000 puller (Sutter Instrument Co., Novato, CA, USA) and afterwards heat-polished, to have patch pipettes with a resistance of approximately 1.5 MOhm determined with the filled pipette in the bath solution.
(§4) For IK measurements the cells were constantly superfused with external bath solution that contained (in mM) NaCl 130, KCl 4, CaCl2 1.8, MgCl2 1, HEPES 10, Glucose 10, adjusted to pH 7.35 with NaOH. The patch pipettes were filled with internal solution containing (in mM) KCl 110, K4BAPTA 5, K2ATP 5, MgCl2 1, HEPES 10, adjusted to pH 7.2 with KOH. For IG measurements the monovalent cations were replaced with N-methyl-D-glucamine (NMG^+). The bath solution contained (in mM) NMG^+ 140, HEPES 10, Glucose 10, MgCl2 1, CaCl2 1.8, titrated to pH 7.35 with HCl. The pipette solution contained (in mM) NMG^+ 140, HEPES 10, EGTA 10, MgCl2 1, titrated to pH 7.2 with HCl. Junction potentials were zeroed with the filled pipette in the bath solution and experiments were excluded from analysis if the voltage error estimate exceeded 5 mV after series resistance compensation. For IG measurements, leak currents and remaining capacitive currents were subtracted online using a −P/6 protocol (using a holding potential of −95 mV). IK recordings were not leak corrected.
(§5) For the highest concentration of 1-BuOH tested (300 mM), the osmolarity of the extracellular solution for IK or IG recordings increased by approximately 300 mOsm resulting in a total osmolarity of ~640 mOsm. […] All compounds were applied to the cells using a pressurized fast perfusion system equipped with a quartz micromanifold (ALA scientific, Farmingdale, NY, USA), allowing rapid exchange of the external solutions.
(§6) Details of pulse protocols used to elicit IK or IG recordings were adjusted to determine the biophysical properties of each construct adequately and are shown in the figures or described in legends. All the graphs were built using SigmaPlot 11.0 (Systat Software Inc., San Jose, CA, USA).

Shaker-IR channel = target: T2, Shaker-IR channel (Drosophila melanogaster, UniProt P08510, DEL6-46); assay: cell-based; assay type: cell-based; details: for GV curve V1/2: voltage dependence of gate opening; for IC50: normalized steady-state IK amplitude at 0 mV, Hill fit, read-out: IC50 of ionic current (IK) inhibition; for Hill coefficient of IK inhibition concentration-response curve: steady-state IK at 0 mV
T2 construct: expressed in transfected cells; host or cells: HEK293
Description: as §1, §2, §3, §4, §5, §6

Shaker-IR-P475A [2] = target: T3, Shaker-IR-P475A (Drosophila melanogaster, UniProt P08510, DEL6-46/P475A); assay: cell-based; assay type: cell-based; details: for GV curve V1/2: from tail currents; for Hill coefficient of weighted τIKac concentration-response curve / IC50: weighted τIKac at +100 mV; for IC50: read-out: IC50 of acceleration of weighted τIKac
T3 construct: expressed in transfected cells; host or cells: HEK293
Description: as §1, §2, §3, §4, §5, §6

Shaker-IR-W434F-P475A = target: T4, Shaker-IR-W434F-P475A (Drosophila melanogaster, UniProt P08510, DEL6-46/P475A/W434F); assay type: cell-based
T4 construct: expressed in transfected cells; host or cells: HEK293
Description: as §1, §2, §3, §4, §5, §6

Shaker-IR-W434F [3] = target: T1, Shaker-IR-W434F; set-up: method as in PMID 11463634; details: cited from earlier work
Shaker-IR-P475A [4] = target: T3, Shaker-IR-P475A; details: cited from earlier work
[5] = integrated steady-state IGac normalized to control, read-out: IC50 of reduction in total gating charge
[6] = weighted τIGdeac at −90 mV, read-out: IC50 of acceleration of VSD deactivation time constant (τIGdeac)

T2 sequence (P08510 other isoform, or with tags, fused parts or gaps DEL6-46): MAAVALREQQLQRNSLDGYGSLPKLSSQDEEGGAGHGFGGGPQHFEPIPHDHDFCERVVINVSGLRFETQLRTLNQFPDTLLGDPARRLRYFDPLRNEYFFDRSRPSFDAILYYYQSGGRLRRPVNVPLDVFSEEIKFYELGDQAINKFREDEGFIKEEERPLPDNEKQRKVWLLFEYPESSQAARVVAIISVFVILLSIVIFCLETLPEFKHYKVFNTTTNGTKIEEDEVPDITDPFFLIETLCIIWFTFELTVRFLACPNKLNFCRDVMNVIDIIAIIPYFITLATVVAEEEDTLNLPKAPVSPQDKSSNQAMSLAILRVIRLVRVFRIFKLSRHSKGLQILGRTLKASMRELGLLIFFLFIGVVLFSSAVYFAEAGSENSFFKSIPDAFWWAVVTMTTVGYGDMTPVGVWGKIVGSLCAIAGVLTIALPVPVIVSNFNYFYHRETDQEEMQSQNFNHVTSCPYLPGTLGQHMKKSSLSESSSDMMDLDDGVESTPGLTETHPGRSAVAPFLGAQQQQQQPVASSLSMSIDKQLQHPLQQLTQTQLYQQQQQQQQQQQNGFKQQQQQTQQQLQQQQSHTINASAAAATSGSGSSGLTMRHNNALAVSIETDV
T3 sequence (P08510 other isoform, or with tags, fused parts or gaps DEL6-46/P475A): as the sequence (P08510 other isoform, or with tags, fused parts or gaps DEL6-46) above, with P434A counted along it
T1 sequence (P08510 other isoform, or with tags, fused parts or gaps DEL6-46/W434F): as the sequence (P08510 other isoform, or with tags, fused parts or gaps DEL6-46) above, with W393F counted along it
T4 sequence (P08510 other isoform, or with tags, fused parts or gaps DEL6-46/W434F/P475A): as the sequence (P08510 other isoform, or with tags, fused parts or gaps DEL6-46) above, with W393F, P434A counted along it

With `CCCCO` [1-BuOH, 1-Butanol] the “Hill coefficient of gating charge reduction concentration-response curve” value (Shaker-IR-W434F [1]) was 1.5 ± 0.2, the “maximal reduction in charge movement” value (Shaker-IR-W434F [1]; 300 mM 1-BuOH) was “approximately 10%” and the “τIGdeac at −120 mV” value (Shaker-IR-W434F [1]; 300 mM 1-BuOH) was 0.48 ± 0.08 ms. For the same molecule, the “extra reduction of gating charge movement on addition to 4-AP” value (Shaker-IR-W434F [1]; 300 mM 1-BuOH in continued presence of 1 mM 4-AP) was “did not result in an extra reduction of gating charge movement”, the “QV curve V1/2” value (Shaker-IR-W434F [1]; 300 mM 1-BuOH) was −32.4 ± 3.4 mV and the “gating charge immobilized (reduction in gating charge movement)” value (Shaker-IR-W434F [1]) was 10%. The IC50 (Shaker-IR-W434F [1]; [5]) was 88 ± 2 mM, the “Hill coefficient of τIGdeac concentration-response curve” value (Shaker-IR-W434F [1]; weighted τIGdeac at −90 mV) was 1.3 ± 0.4 and the IC50 (Shaker-IR-W434F [1]; [6]) was 67 ± 1 mM. For the same molecule, the “GV curve slope factor k” value (Shaker-IR channel; 50 mM 1-BuOH) was 5.1 ± 0.7 mV, the “GV curve V1/2” value (Shaker-IR channel; 50 mM 1-BuOH) was −28.5 ± 2.3 mV and the “time constant of current recovery upon wash-out” value (Shaker-IR channel; after 50 mM 1-BuOH) was 7.6 ± 2.1 s. The “time constant of development of IK inhibition” value (Shaker-IR channel; application of 50 mM 1-BuOH) was 5.2 ± 1.2 s, the IC50 (Shaker-IR channel) was ~50 mM and 50 mM and 51.8 mM and the “Hill coefficient of IK inhibition concentration-response curve” value (Shaker-IR channel) was 0.92 ± 0.04. For the same molecule, the “effect on IK of the P475A mutant” value (Shaker-IR-P475A [2]) was “concentration-dependent increase in IK”, the “GV curve slope factor k” value (Shaker-IR-P475A [2]; 100 mM 1-BuOH) was 9.6 ± 0.4 mV and the “GV curve V1/2” value (Shaker-IR-P475A [2]; 100 mM 1-BuOH) was 62 ± 1 mV. For the same molecule, the “GV curve slope factor k” value (Shaker-IR-P475A [2]; 300 mM 1-BuOH) was 6.8 ± 0.7 mV, the “GV curve V1/2” value (Shaker-IR-P475A [2]; 300 mM 1-BuOH) was 50 ± 1 mV and the “Hill coefficient of weighted τIKac concentration-response curve” value (Shaker-IR-P475A [2]) was 1.5 ± 0.4. The IC50 (Shaker-IR-P475A [2]) was 58.8 ± 3 mM, the “QV curve 1st comp V1/2” value (Shaker-IR-W434F-P475A; 300 mM 1-BuOH) was −39.2 ± 1.4 mV and the “QV curve 1st comp k” value (Shaker-IR-W434F-P475A; 300 mM 1-BuOH) was 16.2 ± 1.2 mV. The “QV curve 2nd comp V1/2” value (Shaker-IR-W434F-P475A; 300 mM 1-BuOH) was 52.2 ± 1.2 mV and the “QV curve 2nd comp k” value (Shaker-IR-W434F-P475A; 300 mM 1-BuOH) was 9.1 ± 1.1 mV.
For `CCCCCCO` [1-HeOH, 1-Hexanol], the “Hill coefficient of gating charge reduction concentration-response curve” value (Shaker-IR-W434F [1]) was 1.5 ± 0.2, the “maximal reduction in charge movement” value (Shaker-IR-W434F [1]; 30 mM 1-HeOH) was roughly 12% and the “τIGdeac at −120 mV” value (Shaker-IR-W434F [1]; 30 mM 1-HeOH) was 0.53 ± 0.10 ms. For the same molecule, the “QV curve V1/2” value (Shaker-IR-W434F [1]; 30 mM 1-HeOH) was −31.4 ± 0.9 mV, the “gating charge immobilized (reduction in gating charge movement)” value (Shaker-IR-W434F [1]) was 10% and the IC50 (Shaker-IR-W434F [1]; [5]) was 13.8 ± 1.6 mM. For the same molecule, the “Hill coefficient of τIGdeac concentration-response curve” value (Shaker-IR-W434F [1]; weighted τIGdeac at −90 mV) was 1.6 ± 0.3, the IC50 (Shaker-IR-W434F [1]; [6]) was 3 ± 0.4 mM and the “GV curve slope factor k” value (Shaker-IR channel; 3 mM 1-HeOH) was 7.5 ± 0.9 mV. The “GV curve V1/2” value (Shaker-IR channel; 3 mM 1-HeOH) was −25.4 ± 1.2 mV, the “time constant of current recovery upon wash-out” value (Shaker-IR channel; after 3 mM 1-HeOH) was 4.8 ± 1.7 s and the “time constant of development of IK inhibition” value (Shaker-IR channel; application of 3 mM 1-HeOH) was 3.7 ± 0.7 s. For the same molecule, the IC50 (Shaker-IR channel) was ~3 mM and 2.7 mM, the “Hill coefficient of IK inhibition concentration-response curve” value (Shaker-IR channel) was 1.13 ± 0.22 and the “effect on IK of the P475A mutant” value (Shaker-IR-P475A [2]) was “concentration-dependent increase in IK”. For the same molecule, the “GV curve slope factor k” value (Shaker-IR-P475A [2]; 10 mM 1-HeOH) was 10.7 ± 0.6 mV, the “GV curve V1/2” value (Shaker-IR-P475A [2]; 10 mM 1-HeOH) was 64 ± 1 mV and the “GV curve slope factor k” value (Shaker-IR-P475A [2]; 30 mM 1-HeOH) was 6.6 ± 0.6 mV. The “GV curve V1/2” value (Shaker-IR-P475A [2]; 30 mM 1-HeOH) was 49 ± 1 mV, the “Hill coefficient of weighted τIKac concentration-response curve” value (Shaker-IR-P475A [2]) was 1.3 ± 0.3 and the IC50 (Shaker-IR-P475A [2]) was 4.6 ± 0.8 mM. The “QV curve 1st comp V1/2” value (Shaker-IR-W434F-P475A; 30 mM 1-HeOH) was −35.3 ± 1.5 mV, the “QV curve 2nd comp V1/2” value (Shaker-IR-W434F-P475A; 30 mM 1-HeOH) was 50.2 ± 1.1 mV and the “QV curve 2nd comp k” value (Shaker-IR-W434F-P475A; 30 mM 1-HeOH) was 3.6 ± 1.4 mV.
In the case of `Nc1ccncc1` [4-AP, 4-aminopyridine], the “reduction in gating charge movement” value (Shaker-IR-W434F [3]) is listed as 10%, the “loss of gating charge movement” value (Shaker-IR-W434F [1]; 1 mM 4-AP) is listed as “approximately 10%” and the inhibition at 30 µM (Shaker-IR channel; HEK293, read-out: steady-state IK inhibition) is listed as roughly 50%. The “sensitivity of the P475A mutant to the drug” value (Shaker-IR-P475A [4]) was “insensitive”.

Reference: publication PMC4663795, “Alkanols inhibit voltage-gated K^+ channels via a distinct gating modifying mechanism that prevents gate opening” (Scientific Reports, 2015)
